Assay results from patent US8604042B2, “Bi-aryl meta-pyrimidine inhibitors of kinases” (TargeGen, Inc., priority 2005, dated 2013).
Counter-ions that a name gives are not always drawn.

Target: T1, recombinant JAK2 (Homo sapiens, UniProt O60674)
T1 construct: purchased Upstate Cell Signaling Solutions
Test: IC50 value determinations for Jak2 kinase, luminescence-based kinase assay (Kinase-Glo)
Assay type: biochemical
Conditions: Table 1

T1 sequence (O60674 808-1132 limits assumed): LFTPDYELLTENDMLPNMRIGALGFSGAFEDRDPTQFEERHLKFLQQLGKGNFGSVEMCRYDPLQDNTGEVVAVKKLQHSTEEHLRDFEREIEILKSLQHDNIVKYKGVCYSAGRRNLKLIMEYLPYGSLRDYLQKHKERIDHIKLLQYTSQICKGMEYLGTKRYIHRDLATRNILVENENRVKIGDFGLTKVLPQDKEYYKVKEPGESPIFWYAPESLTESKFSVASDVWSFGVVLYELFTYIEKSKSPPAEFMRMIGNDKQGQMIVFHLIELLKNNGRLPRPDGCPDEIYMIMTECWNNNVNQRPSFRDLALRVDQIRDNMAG

`Cc1cnc(Nc2ccc(N3CCN(C)CC3)cc2)nc1Nc1cccc(S(=O)(=O)N(C)C)c1` [N,N-Dimethyl-3-{5-methyl-2-[4-(4-methyl-piperazin-1-yl)-phenylamino]-pyrimidin-4-ylamino}-benzenesulfonamide] and `CCCS(=O)(=O)c1cccc(Nc2nc(Nc3ccc(N4CCN(C)CC4)cc3)ncc2C)c1` [5-methyl-N2-(4-(4-methylpiperazin-1-yl)phenyl)-N4-(3-(propylsulfonyl)phenyl) pyrimidine-2,4-diamine] are within 1.5-fold of each other in IC50: 0.0095 µM for the first, 0.008 µM for the second.

First: Cc1cnc(Nc2ccc(OCCN3CCCC3)cc2)nc1Nc1ccc(C(F)(F)F)cc1 [N2-(4-(2-(pyrrolidin-1-yl)ethoxy)phenyl)-N4-(4-(trifluoromethyl)phenyl)-5-methylpyrimidine-2,4-diamine hydrochloride]
Second: Cc1cnc(Nc2ccc(OCCN3CCCC3)cc2)nc1Nc1cccc(C(F)(F)F)c1 [N2-(4-(2-(pyrrolidin-1-yl)ethoxy)phenyl)-N4-(3-(trifluoromethyl)phenyl)-5-methylpyrimidine-2,4-diamine]
The IC50 of the first is 2.3-fold higher: 0.0398 µM for the first, 0.0176 µM for the second.

`Cc1cnc(Nc2ccc(N3CCNCC3)c(C(F)(F)F)c2)nc1Nc1cccc(S(=O)(=O)NC(C)(C)C)c1` [N-tert-butyl-3-[(5-methyl-2-{[4-piperazin-1-yl-3-(trifluoromethyl)phenyl]amino}pyrimidin-4-yl)amino]benzenesulfonamide] and `Cc1cnc(Nc2ccc(-n3cccn3)cc2)nc1Nc1cccc(S(=O)(=O)NC(C)(C)C)c1` [N-tert-Butyl-3-[5-methyl-2-(4-pyrazol-1-yl-phenylamino)-pyrimidin-4-ylamino]-benzenesulfonamide] are within 1.5-fold of each other in IC50: 0.0225 µM for the first, 0.019 µM for the second.

Compared with `COc1cc(Nc2nc(Nc3ccc(OCCN4CCCC4)cc3)ncc2C)ccc1Cl` [drawing 311, N4-(4-Chloro-3-methoxy-phenyl)-5-methyl-N2-[4-(2-pyrrolidin-1-yl-ethoxy)-phenyl]-pyrimidine-2,4-diamine], `Cc1cnc(Nc2ccc(OCCN3CCCC3)cc2)nc1Nc1ccc(Cl)c(Cl)c1` [N4-(3,4-Dichloro-phenyl)-5-methyl-N2-[4-(2-pyrrolidin-1-yl-ethoxy)-phenyl]-pyrimidine-2,4-diamine] is 3.2-fold higher in IC50: 0.00796 µM for the first, 0.0257 µM for the second.

Compared with `Cc1cnc(Nc2ccc(N3CCN(C)CC3)cc2)nc1Nc1cccc(NC(=O)Nc2ccccc2)c1` [1-(3-{5-Methyl-2-[4-(4-methyl-piperazin-1-yl)-phenylamino]-pyrimidin-4-ylamino}-phenyl)-3-phenyl-urea], `Cc1cnc(Nc2ccc(N3CCN(C)CC3)cc2)nc1Nc1cccc(C(=O)NC(C)C)c1` [N-Isopropyl-3-{5-methyl-2-[4-(4-methyl-piperazin-1-yl)-phenylamino]-pyrimidin-4-ylamino}-benzamide] is 8.5-fold higher in IC50: 0.0636 µM for the first, 0.541 µM for the second.

First: Cc1cnc(Nc2ccc(OC3CCNCC3)cc2)nc1Nc1cccc(O)c1 [3-(2-(4-(piperidin-4-yloxy)phenylamino)-5-methylpyrimidin-4-ylamino)phenol]
Second: Cc1cc(Nc2nc(Nc3ccc(OC4CCNCC4)cc3)ncc2C)ccc1Cl [N4-(4-Chloro-3-methyl-phenyl)-5-methyl-N2-[4-(piperidin-4-yloxy)-phenyl]-pyrimidine-2,4-diamine]
The IC50 of the first is 6.2-fold higher: 0.0519 µM for the first, 0.00841 µM for the second. The second is the more potent here.

First: Cc1cnc(Nc2ccc(N3CCN(C)CC3)cc2)nc1Nc1cccc(S(=O)(=O)NC2CCCC2)c1 [N-Cyclopentyl3-{5-Methyl-2-[4-(4-methyl-piperazin-1-yl)-phenylamino]-pyrimidine-4-ylamino}-benzenesulfonamide Hydrochloride]
Second: Cc1cnc(Nc2ccc(N3CCN(C)CC3)cc2)nc1Nc1cccc(N2CCCCC2)c1 [5-methyl-N2-(4-(4-methylpiperazin-1-yl)phenyl)-N4-(3-(piperidin-1-yl)phenyl)pyrimidine-2,4-diamine]
The IC50 of the first is 2.3-fold lower: 0.0198 µM for the first, 0.0463 µM for the second.

Compared with `COc1cc(Nc2ncc(C)c(Nc3cccc4c3OCO4)n2)ccc1OCCN1CCCC1` [N4-Benzo[1,3]dioxol-4-yl-N2-[3-methoxy-4-(2-pyrrolidin-1-yl-ethoxy)-phenyl]-5-methyl-pyrimidine-2,4-diamine], `COc1cc(Nc2nc(Nc3cccc(OCCN4CCCC4)c3)ncc2C)c(Cl)cc1Cl` [drawing 300, N4-(2,4-Dichloro-5-methoxy-phenyl)-5-methyl-N2-[3-(2-pyrrolidin-1-yl-ethoxy)-phenyl]-pyrimidine-2,4-diamine] is 220-fold higher in IC50: 0.00934 µM for the first, 2.04 µM for the second. The first is the more potent here.

Going from `Cc1cnc(Nc2nc(Nc3ccc(OCCN4CCCC4)cc3)ncc2C)nc1Nc1cccc(C(C)(C)C)c1` [N2-(4-(2-(pyrrolidin-1-yl)ethoxy)phenyl)-N4-(4-(3-tert-butylphenylamino)-5-methylpyrimidin-2-yl)-5-methylpyrimidine-2,4-diamine Hydrochloride] to `Cc1cnc(Nc2ccc(OCCN3CCCC3)cc2)nc1Nc1cccc(C(C)(C)C)c1` [N2-(4-(2-(pyrrolidin-1-yl)ethoxy)phenyl)-N4-(3-tert-butylphenyl)-5-methylpyrimidine-2,4-diamine Hydrochloride], the IC50 falls from 0.153 µM to 0.00671 µM (23-fold). The second is the more potent here.

First: Cc1cnc(Nc2ccc(-n3cncn3)cc2)nc1Nc1cccc(S(=O)(=O)NC(C)(C)C)c1 [N-tert-Butyl-3-[5-methyl-2-(4-[1,2,4]triazol-1-yl-phenylamino)-pyrimidin-4-ylamino]-benzenesulfonamide]
Second: Cc1cnc(Nc2ccc(-n3ccnc3)cc2)nc1Nc1cccc(S(=O)(=O)NC(C)(C)C)c1 [N-tert-Butyl-3-[2-(4-imidazol-1-yl-phenylamino)-5-methyl-pyrimidin-4-ylamino]-benzenesulfonamide]
The IC50 of the first is 3.4-fold higher: 0.0414 µM for the first, 0.0123 µM for the second. The second is the more potent here.

`COc1cc(Nc2nc(Nc3ccc(N4CCNCC4)nc3)ncc2C)ccc1Cl` [N4-(4-Chloro-3-methoxy-phenyl)-5-methyl-N2-(6-piperazin-1-yl-pyridin-3-yl)-pyrimidine-2,4-diamine] and `COc1cc(Nc2nc(Nc3ccc(CN4CCNCC4)cc3)ncc2C)ccc1Cl` [N4-(4-Chloro-3-methoxy-phenyl)-5-methyl-N2-(4-piperazin-1-ylmethyl-phenyl)-pyrimidine-2,4-diamine] are within 1.5-fold of each other in IC50: 0.0121 µM for the first, 0.0152 µM for the second.

`Cc1cnc(Nc2ccc(C[N+]3([O-])CCOCC3)cc2)nc1Nc1cccc(S(=O)(=O)NC(C)(C)C)c1` [N-tert-Butyl-3-{5-methyl-2-[4-(4-oxy-morpholin-4-ylmethyl)-phenylamino]-pyrimidin-4-ylamino}-benzenesulfonamide] and `Cc1ccc(Nc2nc(Nc3ccc(OCCN4CCCC4)cc3)ncc2C)cc1S(=O)(=O)NC(C)(C)C` [N-tert-Butyl-2-methyl-5-{5-methyl-2-[4-(2-pyrrolidin-1-yl-ethoxy)-phenylamino]-pyrimidin-4-ylamino}-benzenesulfonamide] are within 1.5-fold of each other in IC50: 0.0486 µM for the first, 0.0444 µM for the second.

Compared with `Cc1cnc(Nc2ccc(OCCN3CCCC3)cc2)nc1Nc1ccc2sccc2c1` [N4-Benzo[b]thiophen-5-yl-5-methyl-N2-[4-(2-pyrrolidin-1-yl-ethoxy)-phenyl]-pyrimidine-2,4-diamine], `CNC(=O)c1cccc(Nc2nc(Nc3ccc(OCCN4CCCC4)cc3)ncc2C)c1` [N-Methyl-3-{5-methyl-2-[4-(2-pyrrolidin-1-yl-ethoxy)-phenylamino]-pyrimidin-4-ylamino}-benzamide] is 9-fold higher in IC50: 0.0285 µM for the first, 0.257 µM for the second.

Compared with `COc1cc(Nc2nc(Nc3cccc(OCCN4CCCC4)c3)ncc2C#N)c(Cl)cc1Cl` [drawing 299, 4-(2,4-Dichloro-5-methoxy-phenylamino)-2-[3-(2-pyrrolidin-1-yl-ethoxy)-phenylamino]-pyrimidine-5-carbonitrile], `Cc1cnc(Nc2ccc(OCCN3CCCC3)cc2)nc1Nc1ccc(Cl)c2[nH]ccc12` [N2-(4-(2-(pyrrolidin-1-yl)ethoxy)phenyl)-N4-(7-chloro-1H-indol-4-yl)-5-methylpyrimidine-2,4-diamine Hydrochloride] is 9100-fold lower in IC50: 10.5 µM for the first, 0.00116 µM for the second. The second is the more potent here.

Going from `c1ccc(Cc2ccnc(Nc3ccc(OCCN4CCCC4)cc3)n2)cc1` [N-(4-(2-(pyrrolidin-1-yl)ethoxy)phenyl)-4-benzylpyrimidin-2-amine] to `Cc1cnc(Nc2ccc(OCCN3CCCC3)cc2)nc1Nc1ccc(F)c2[nH]ccc12` [N2-(4-(2-(pyrrolidin-1-yl)ethoxy)phenyl)-N4-(7-fluoro-1H-indol-4-yl)-5-methylpyrimidine-2,4-diamine Hydrochloride], the IC50 falls from 0.702 µM to 0.00928 µM (76-fold). The second is the more potent here.

Compared with `COc1cc(Nc2nc(Nc3ccc(N4CCOCC4)cc3)ncc2C)ccc1Cl` [N4-(4-Chloro-3-methoxy-phenyl)-5-methyl-N2-(4-morpholin-4-yl-phenyl)-pyrimidine-2,4-diamine], `COc1cc(Nc2nc(Nc3ccc(S(=O)(=O)C4CCNCC4)cc3)ncc2C)ccc1Cl` [N4-(4-Chloro-3-methoxy-phenyl)-5-methyl-N2-[4-(piperidine-4-sulfonyl)-phenyl]-pyrimidine-2,4-diamine] is 10-fold lower in IC50: 0.13 µM for the first, 0.013 µM for the second. The second is the more potent here.

Compared with `Cc1cnc(Nc2ccc(N3CCN(C)CC3)cc2)nc1Nc1ccc(C)c2[nH]ccc12` [5-methyl-N4-(7-methyl-1H-indol-4-yl)-N2-(4-(4-methylpiperazin-1-yl)phenyl)pyrimidine-2,4-diamine Hydrochloride], `Cc1cnc(Nc2ccc(N3CCN(C)CC3)cc2)nc1Nc1cccc(C2CCN(CCO)CC2)c1` [2-[4-(3-{5-Methyl-2-[4-(4-methyl-piperazin-1-yl)-phenylamino]-pyrimidin-4-ylamino}-phenyl)-piperidin-1-yl]-ethanol] is 2.2-fold higher in IC50: 0.00384 µM for the first, 0.00846 µM for the second.

Going from `Cc1cc(C)cc(Nc2nc(Nc3ccc(OC4CCNCC4)cc3)ncc2C)c1` [5-methyl-N4-(3,5-dimethylphenyl)-N2-(4-(piperidin-4-yloxy)phenyl)pyrimidine-2,4-diamine hydrochloride] to `Cc1cnc(Nc2ccc(OC3CCNCC3)cc2)nc1Nc1ccc(Cl)c(C(F)(F)F)c1` [N4-(4-Chloro-3-trifluoromethyl-phenyl)-5-methyl-N2-[4-(piperidin-4-yloxy)-phenyl]-pyrimidine-2,4-diamine], the IC50 falls from 0.0372 µM to 0.0114 µM (3.3-fold).

With `CC(=O)Nc1cccc(Nc2nc(Nc3ccc(OC4CCNCC4)cc3)ncc2C)c1C` [N-(2-Methyl-3-(5-methyl-2-[4-(piperidin-4-yloxy)-phenylamino]-pyrimidin-4-ylamino}-phenyl)-acetamide] the IC50 was 0.146 µM.

Same assay, conditions: Table 5, Initial Screening Hits for JAK2

With `COc1cc(Nc2nc(Nc3ccc(OCCN4CCCC4)cc3)ncc2C#N)c(Cl)cc1Cl` [Compound 1] the IC50 was 6.24 µM.

Same assay, conditions: Table 7, SAR for the P3 region

For `Cc1nc(Nc2ccccc2)nc(Nc2cccc3c2OCO3)c1C` [Compound 8], the IC50 was > 10 µM.

Same assay, conditions: Table 9, SAR of the P2/P1 region

With `Cc1cnc(Nc2cccc(S(=O)(=O)NC(C)(C)C)c2)nc1Nc1cccc(S(=O)(=O)NC(C)(C)C)c1` [Compound 58] the IC50 was 0.707 µM.
